The source of these data is US11103619B2, “Anticalcification treatment for impantable biological tissues using calcitonin” (priority 2018, dated 2021).

The test system of this test is Porcine aortic leaflets implanted subdermally in male Wistar rats. As to the kind of experiment: Post-implantation calcium content of treated porcine aortic leaflets implanted subdermally in rats for 21 days, measured by atomic absorption. The following applies: for Cumulative results of post-implantation Ca concentration: mean ± STDEV, p < 0.05 vs Group I (Glut only, 126.95 ± 12.97); for Post implantation Ca Content: explanted after 21 days, mean. Type of test: in vivo. How it is done:
In one embodiment, the method comprises placing the biological tissue for fixation and preservation in a buffered glutaraldehyde (Glut) solution 0.5% at pH 7.4, adding salmon synthetic calcitonin (CT), such as Miacalcic® of Novartis Hellas A.B.E. In this experiment, two different concentrations of calcitonin were tested. One with 1 unit/100 ml (1%) and the other with 10 units/100 ml (10%). The first fixation process lasted one hour, at a pressure between 2-3 mmHg and subsequently the biological tissues were embedded in an accordingly new solution for one week.
Porcine aortic leaflets were selected as fresh tissue from a local slaughter house and were cut radially in three parts. Following harvesting, the biological tissue is rinsed and maintained in cold Hepa saline solution (temperature between 4°-12° C.) between two to six hours.
Three groups of tissue were created. Group I (Glut only), Group II (Glut with 1% CT) and Group III (Glut with 10% CT). All tissues were then implanted subdermally in three sets of 8 (Group I), 9 (Group II) and 9 (Group III) male Wistar rats of 12 days old (Center for Experimental Surgery, Biomedical Research Foundation of the Academy of Athens). […] All tissues were rinsed three times in normal saline solution for 10 minutes each time before implantation. Each rat received four fragments of tissue at the dorsum, through four separate incisions (two at each side) each of 1 cm long, with a technique we have previously described elsewhere (Agathos E A et al: “In vivo calcification of glutaraldehyde fixed cardiac valve and pericardium of Phoca Groenlandica”: ASAIO 57(4):328-332, July/August 2011).
21 days later the rats were euthanized by inhalation of CO2. All procedures were approved by the Animal Care Committee of the Academy of Athens and performed according to the Guide for the Care and Use of Laboratory Animals prepared by the Institutes of Laboratory Animal Resources, National Research Council and published by the National Academy Press, revised 1996 (NIH publication No. 85-23). The tissues were retrieved and after rinsing with distilled water 3 times, were lyophilized at −40° C. at high vacuum pressure of approximately […] for 16 hours. The calcium content was then measured with flat atomic absorption technique.
For statistical analysis, the commercially available software package ANOVA Origin 8.0 for Windows (OriginLab Corporation, Northampton, Mass., USA) was used. P values of 0.05 or less were defined as a statistically significant difference.

In the case of salmon synthetic calcitonin [CT], the “Ca concentration accumulation in the explanted tissues (fold, post vs pre implantation)” value reads like this: (Group II (1% CT)) 5.16 ×; (Group III (10% CT)) 9.43 ×. For the same substance, the “Cumulative results of post-implantation Ca concentration” value by setting is: (Group II (1% CT), ns vs Group III) 24.69 ± 2.71; (Group III (10% CT), ns vs Group II) 27.16 ± 2.95. The “Post implantation Ca Content” value (Group II: Glut with 1% CT) is 24.69 mg Ca/gr tissue and the “Post implantation Ca Content” value (Group III: Glut with 10% CT) was 27.16 mg Ca/gr tissue.
